This passage reports DC50 results from US20250388565A1, “ESTROGEN RECEPTOR ALPHA DEGRADERS AND METHODS OF USE THEREOF” (Relay Therapeutics, Inc., priority 2022, published 2025).

As usually defined, the DC50 is the concentration at which degradation of the target reaches its halfway point.

For this assay, the target named is T1, ERα protein (HiBiT-tagged) in ESR1_HiBiT KI MCF7 cells (Homo sapiens, UniProt P03372).
T1 sequence (P03372 1-595): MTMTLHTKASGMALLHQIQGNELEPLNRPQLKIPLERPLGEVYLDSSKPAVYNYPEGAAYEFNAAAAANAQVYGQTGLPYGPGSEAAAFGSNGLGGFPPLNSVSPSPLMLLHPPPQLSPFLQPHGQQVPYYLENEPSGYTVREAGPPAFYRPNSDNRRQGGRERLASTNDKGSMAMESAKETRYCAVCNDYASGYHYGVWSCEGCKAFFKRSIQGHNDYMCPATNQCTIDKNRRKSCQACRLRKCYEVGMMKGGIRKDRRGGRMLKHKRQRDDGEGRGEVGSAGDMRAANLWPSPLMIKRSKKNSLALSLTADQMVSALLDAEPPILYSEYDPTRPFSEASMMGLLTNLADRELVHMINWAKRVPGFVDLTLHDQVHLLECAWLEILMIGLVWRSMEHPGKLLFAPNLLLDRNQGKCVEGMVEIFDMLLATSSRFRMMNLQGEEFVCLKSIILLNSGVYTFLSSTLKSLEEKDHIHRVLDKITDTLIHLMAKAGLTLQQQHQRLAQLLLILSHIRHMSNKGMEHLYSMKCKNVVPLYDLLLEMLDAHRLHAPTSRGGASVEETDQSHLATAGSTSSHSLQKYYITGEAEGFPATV
Nature of the assay: Nano Glo HiBiT Lytic Degradation Assay. It counts as cell-based. As to conditions: 6 hours with compound, 14-point dose response 1:3, bell-shape curve fit, half-maximal effect of first Hill model, read-out: MCF7 ESR1 HiBiT - (DC50). The method, then:
Selected compounds of the present disclosure were tested in a Nano Glo HiBiT Lytic Degradation Assay to measure the level of ERα protein degradation in MCF7 cells.
Cell culture: ESR1_HiBiT KI MCF7 cells were maintained in growth media without antibiotics. Cells were maintained in exponential growth phase, between 40% and 90% confluency.
Cell seeding: Cells were counted using a Vi-Cell and seeded in a 384-well flat-bottom microplate (cell culture-treated) at 4000 cells/well in 25 μL of growth medium using a BioTek MultiFlo Multimode Dispenser. Plates were incubated for 24 h at 37° C., 5% CO2, >95% relative humidity.
Compound preparation: Compounds were screened as 14-point dose response curves 1:3 dilutions. DMSO is used as the vehicle control and all wells were normalized to the same final DMSO concentration (0.1% v/v). Compounds were dosed using an Echo Acoustic Liquid Handler, 25 nL of 1000× (10 mM top concentration) DMSO stock/well. Cells were incubated with compounds for 6 hours at 37° C., 5% CO2, >95% relative humidity. Each compound was run in duplicate.
Nano Glo HiBiT Lytic Degradation Assay: HiBiT-tagged ERα protein levels were quantified using a Nano Glo HiBiT Lytic Degradation Assay following the manufacturer's protocol. Briefly, the Nano-Glo® HiBiT Lytic Reagent was prepared by diluting the LgBiT Protein reagent (1:100) and the Nano-Glo® HiBiT Lytic Substrate (1:50) into Nano-Glo® HiBiT Lytic Buffer at room temperature. The 384-well microplate were equilibrated to room temperature and 25 μL of Nano-Glo® HiBiT Lytic Reagent was added to each well. Samples were mixed by placing the 384-well microplate on an orbital shaker for 10 minutes. Luminescence was measured using an EnVision 2105 Multimode Plate Reader.
Data processing and analysis: Background signal (wells containing growth medium without cells) was subtracted from individual relative light units (RLU) values and the resulting values were normalized to the DMSO control well values. Dose responses were analyzed with Genedata Screener® using a bell-shape curve fit and the concentrations corresponding to the half-maximal effect of the first Hill model were used as DC50 values.
(With HiBiT, luminescence reflects the tagged protein that the partner subunit can reach.)
In the case of `O=C1CCN(c2ccc(N3CCC4(CCN(CC5CCN(c6ccc([C@@H]7c8ccc(O)cc8C(F)(F)C[C@@H]7c7ccccc7)cc6)CC5)C4)CC3)cc2)C(=O)N1` [Compound I-292, 1-(4-(2-((1-(4-((1R,2S)-4,4-difluoro-6-hydroxy-2-phenyl-1,2,3,4-tetrahydronaphthalen-1-yl)phenyl)piperidin-4-yl)methyl)-2,8-diazaspiro[4.5]decan-8-yl)phenyl)dihydropyrimidine-2,4 (1H,3H)-dione], the DC50 stood at 0.73 nM. For `CC(C)(O)[C@@H]1CCc2cc(O)ccc2[C@@H]1c1ccc(N2CCC(CN3CCN(c4ccc5c(c4)CN([C@H]4CCC(=O)NC4=O)C5=O)CC3)CC2)cc1` [Compound I-219, (S)-3-(5-(4-((1-(4-((1S,2R)-6-hydroxy-2-(2-hydroxypropan-2-yl)-1,2,3,4-tetrahydronaphthalen-1-yl)phenyl)piperidin-4-yl)methyl)piperazin-1-yl)-1-oxoisoindolin-2-yl)piperidine-2,6-dione] the value was not below 10000 nM.

Consider `NC(=O)C(CCC(=O)O)N1Cc2cc(N3CCN(CC4CCN(c5ccc([C@@H]6c7ccc(O)cc7CO[C@@H]6c6ccccc6)cc5)CC4)CC3)ccc2C1=O` (some centres unmarked) [Compound I-399], for which the half-maximal degradation concentration (DC50) is not below 10000 nM. For `O=C1CCC(c2ccc(N3CC[C@@H]4[C@H]3CCN4CC3CCN(c4ccc([C@@H]5c6ccc(O)cc6CC[C@@H]5c5ccccc5)cc4)CC3)cc2)C(=O)N1` (stereo partly drawn) [Compound I-176, 3-(4-((3aR,6aR)-4-((1-(4-((1R,2S)-6-hydroxy-2-phenyl-1,2,3,4-tetrahydronaphthalen-1-yl)phenyl)piperidin-4-yl)methyl)hexahydropyrrolo[3,2-b]pyrrol-1 (2H)-yl)phenyl)piperidine-2,6-dione], the DC50 amounted to 3300 nM.

As for `Cc1cc(F)cc(F)c1[C@H]1CCc2cc(O)ccc2[C@H]1c1ccc(N2CCC(CN3CCN(c4ccc5c(c4)CN([C@H]4CCC(=O)NC4=O)C5=O)CC3)CC2)cc1` [II-74], the 50% degradation concentration (DC50) came out at 0.13 nM. For the compound `O=C1CC[C@H](N2Cc3cc(N4CCN(CC5CCN(c6ccc([C@H]7c8ccc(O)cc8CC[C@H]7c7ccccc7)nc6)CC5)CC4)ccc3C2=O)C(=O)N1` [II-77], the 50% degradation concentration (DC50) is not below 10000 nM. Take `O=C1CC[C@H](c2ccc(N3CCC4(CCN(CC5CCN(c6ccc([C@@H]7c8ccc(O)cc8C(F)(F)C[C@@H]7c7ccccc7)cc6)CC5)C4)CC3)cc2)C(=O)N1` (single isomer, unassigned) [Compound I-285]: the half-maximal degradation concentration (DC50) came to 0.27 nM. `O=C1CC[C@H](N2Cc3cc(N4CCN(CC5CCN(c6ccc([C@@H]7c8ccc(Br)cc8CC[C@@H]7c7ccccc7)cc6)CC5)CC4)ccc3C2=O)C(=O)N1` [II-62]: the half-maximal degradation concentration (DC50) was not below 10000 nM. For `O=C1CC[C@H](N2Cc3cc(N4CCN(CC5CCN(c6ccc([C@H]7c8ccc(O)cc8C(F)(F)C[C@H]7c7ccc(C(F)(F)F)cc7)cc6)CC5)CC4)ccc3C2=O)C(=O)N1` [Compound I-330, (S)-3-(5-(4-((1-(4-((1S,2R)-4,4-difluoro-6-hydroxy-2-(4-(trifluoromethyl)phenyl)-1,2,3,4-tetrahydronaphthalen-1-yl)phenyl)piperidin-4-yl)methyl)piperazin-1-yl)-1-oxoisoindolin-2-yl)piperidine-2,6-dione] the value was 35 nM; for `[2H]c1cc2c(c([2H])c1O)C([2H])C[C@H](c1ccccc1)[C@@H]2c1ccc(N2CCC(CN3CCN(c4ccc5c(c4)CN([C@H]4CCC(=O)NC4=O)C5=O)CC3)CC2)cn1` (some centres unmarked) [Compound I-339], 0.31 nM.

For the compound `O=C1CC[C@@H](N2Cc3cc(N4CCN(CC5CCN(c6ccc([C@@H]7c8ccc(O)cc8C(F)(F)C[C@@H]7c7ccc(F)cc7)cc6)CC5)CC4)ccc3C2=O)C(=O)N1` [Compound I-310, (R)-3-(5-(4-((1-(4-((1R,2S)-4,4-difluoro-2-(4-fluorophenyl)-6-hydroxy-1,2,3,4-tetrahydronaphthalen-1-yl)phenyl)piperidin-4-yl)methyl)piperazin-1-yl)-1-oxoisoindolin-2-yl)piperidine-2,6-dione], the DC50 stood at 5.74 nM.
